Measurements reported in ChEMBL document CHEMBL1201862, “PubChem BioAssay data set” (2004).
Active and inactive are the calls of the source.

How the values were obtained:
Cytochrome P450 2C19 = Cytochrome P450 2C19 (Homo sapiens, UniProt P33261); assay: Cytochrome panel assay with activity outcomes. Panel member name: p450-cyp2c19 Compounds with AC50 equal or less than 10 uM are considered active; assay type: functional; settings: read-out: AC50
Cytochrome P450 2D6 = Cytochrome P450 2D6 (Homo sapiens, UniProt P10635);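 note: CYP2D6 member of a cytochrome P450 panel assay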
Cytochrome P450 2D6, sequence (P10635 whole entry): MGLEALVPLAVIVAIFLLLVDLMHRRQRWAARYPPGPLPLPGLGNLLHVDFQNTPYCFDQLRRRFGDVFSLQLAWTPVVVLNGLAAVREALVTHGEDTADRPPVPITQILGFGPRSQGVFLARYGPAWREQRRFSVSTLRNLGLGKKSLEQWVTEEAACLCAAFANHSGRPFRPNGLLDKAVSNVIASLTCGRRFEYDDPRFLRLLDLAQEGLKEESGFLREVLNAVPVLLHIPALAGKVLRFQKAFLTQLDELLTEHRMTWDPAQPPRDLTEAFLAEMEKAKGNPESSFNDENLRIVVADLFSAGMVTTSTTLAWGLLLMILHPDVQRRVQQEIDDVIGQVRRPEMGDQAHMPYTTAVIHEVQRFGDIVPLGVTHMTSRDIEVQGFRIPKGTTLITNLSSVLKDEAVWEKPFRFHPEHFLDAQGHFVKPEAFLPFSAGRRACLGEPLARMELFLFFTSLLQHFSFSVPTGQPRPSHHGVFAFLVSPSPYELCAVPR

Cytochrome P450 2C9 = Cytochrome P450 2C9 (Homo sapiens, UniProt P11712)
Cytochrome P450 2C9, sequence (P11712 whole entry): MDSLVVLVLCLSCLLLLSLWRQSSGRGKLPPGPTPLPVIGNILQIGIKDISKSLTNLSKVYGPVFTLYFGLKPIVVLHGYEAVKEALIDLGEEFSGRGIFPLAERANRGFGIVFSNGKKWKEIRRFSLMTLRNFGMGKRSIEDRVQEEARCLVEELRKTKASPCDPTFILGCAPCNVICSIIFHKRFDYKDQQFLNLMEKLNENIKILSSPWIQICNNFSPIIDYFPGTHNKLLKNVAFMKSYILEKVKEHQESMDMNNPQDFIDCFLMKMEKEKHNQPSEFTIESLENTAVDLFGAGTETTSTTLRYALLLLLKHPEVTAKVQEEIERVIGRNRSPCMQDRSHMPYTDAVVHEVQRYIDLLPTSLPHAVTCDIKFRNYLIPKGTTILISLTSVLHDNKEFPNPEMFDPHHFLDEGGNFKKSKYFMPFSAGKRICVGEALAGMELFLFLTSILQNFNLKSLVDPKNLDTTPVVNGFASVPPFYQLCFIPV

cells [1] = assay type: functional, cell-based
[2] = target: T1, Corticotropin-releasing factor receptor 2/Corticotropin-releasing factor-binding protein (Homo sapiens, UniProt P24387+Q13324); assay: Dose Response confirmation of uHTS hits for small molecule antagonists of the CRF-binding protein and CRF-R2 receptor complex.; assay type: functional; settings: read-out: IC50_Mean
T1 sequence (Q13324 whole entry): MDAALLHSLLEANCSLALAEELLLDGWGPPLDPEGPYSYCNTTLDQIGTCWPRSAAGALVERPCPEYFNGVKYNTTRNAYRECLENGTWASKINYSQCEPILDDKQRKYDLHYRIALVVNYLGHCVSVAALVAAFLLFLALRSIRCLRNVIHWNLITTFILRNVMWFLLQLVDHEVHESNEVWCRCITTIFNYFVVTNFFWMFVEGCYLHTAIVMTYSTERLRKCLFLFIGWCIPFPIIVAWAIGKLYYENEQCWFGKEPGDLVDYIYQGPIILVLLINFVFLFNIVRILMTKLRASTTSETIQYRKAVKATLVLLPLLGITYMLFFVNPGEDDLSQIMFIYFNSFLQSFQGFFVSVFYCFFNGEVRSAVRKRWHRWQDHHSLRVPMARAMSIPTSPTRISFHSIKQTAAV
T1 sequence (P24387 whole entry): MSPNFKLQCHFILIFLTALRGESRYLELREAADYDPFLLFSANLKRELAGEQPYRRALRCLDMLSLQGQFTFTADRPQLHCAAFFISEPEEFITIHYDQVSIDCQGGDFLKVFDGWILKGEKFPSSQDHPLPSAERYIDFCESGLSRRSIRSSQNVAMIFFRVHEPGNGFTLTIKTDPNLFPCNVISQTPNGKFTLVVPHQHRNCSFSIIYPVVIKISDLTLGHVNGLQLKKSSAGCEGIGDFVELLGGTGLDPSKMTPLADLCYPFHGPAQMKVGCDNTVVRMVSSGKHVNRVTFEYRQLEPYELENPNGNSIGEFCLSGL

[3] = target: T1, Corticotropin-releasing factor receptor 2/Corticotropin-releasing factor-binding protein; assay: activators of CRF receptor 2 with binding protein – uHTS hits, confirmation (AID 602473); assay type: functional; settings: read-out: EC50_Mean
Cytochrome P450 3A4 = Cytochrome P450 3A4 (Homo sapiens, UniProt P08684);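 note: CYP3A4 tested as one member of a cytochrome P450 panel screen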
Cytochrome P450 3A4, sequence (P08684 whole entry): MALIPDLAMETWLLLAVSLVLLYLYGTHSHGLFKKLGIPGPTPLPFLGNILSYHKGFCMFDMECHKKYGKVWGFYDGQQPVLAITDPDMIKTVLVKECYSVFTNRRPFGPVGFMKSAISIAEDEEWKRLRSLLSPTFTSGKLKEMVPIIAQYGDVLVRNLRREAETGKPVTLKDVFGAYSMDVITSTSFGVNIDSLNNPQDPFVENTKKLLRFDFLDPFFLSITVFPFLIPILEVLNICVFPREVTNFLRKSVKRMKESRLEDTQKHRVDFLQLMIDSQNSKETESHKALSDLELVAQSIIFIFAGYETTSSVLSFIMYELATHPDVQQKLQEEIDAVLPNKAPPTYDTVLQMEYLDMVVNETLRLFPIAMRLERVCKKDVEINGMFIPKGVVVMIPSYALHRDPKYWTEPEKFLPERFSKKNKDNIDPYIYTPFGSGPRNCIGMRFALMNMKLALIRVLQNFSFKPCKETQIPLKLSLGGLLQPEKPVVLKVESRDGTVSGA

cells [4] = assay type: functional
[5] = target: T2, Polyadenylate-binding protein 1 (Homo sapiens, UniProt P11940); assay: MLLE binding blockers, Cy5 peptide tracer – biochemical, fluorescence polarization, Cy5-PAM2 peptide, secondary, miRNA deadenylation inhibitor project, dose response (AID 602260); assay type: functional; settings: read-out: IC50_Mean
T2 sequence (P11940 whole entry, the tested form may be a part): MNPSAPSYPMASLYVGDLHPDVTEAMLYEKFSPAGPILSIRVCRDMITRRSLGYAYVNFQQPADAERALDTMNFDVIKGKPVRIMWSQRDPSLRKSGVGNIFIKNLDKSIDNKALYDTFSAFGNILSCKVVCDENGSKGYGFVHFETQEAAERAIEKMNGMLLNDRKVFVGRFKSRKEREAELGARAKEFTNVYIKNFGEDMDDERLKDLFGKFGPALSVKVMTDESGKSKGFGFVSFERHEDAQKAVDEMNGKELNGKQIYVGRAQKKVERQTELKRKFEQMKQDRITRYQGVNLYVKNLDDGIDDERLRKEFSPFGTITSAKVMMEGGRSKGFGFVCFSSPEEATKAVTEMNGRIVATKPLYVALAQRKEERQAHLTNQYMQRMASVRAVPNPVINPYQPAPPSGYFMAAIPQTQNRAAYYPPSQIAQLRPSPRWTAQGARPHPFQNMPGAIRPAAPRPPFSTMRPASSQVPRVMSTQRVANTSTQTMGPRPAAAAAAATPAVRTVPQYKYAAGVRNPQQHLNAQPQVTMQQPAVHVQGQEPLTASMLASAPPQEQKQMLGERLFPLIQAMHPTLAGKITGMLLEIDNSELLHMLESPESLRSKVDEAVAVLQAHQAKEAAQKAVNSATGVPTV

[6] = target: T2, Polyadenylate-binding protein 1; assay: MLLE domain peptide-binding blockers, IC50 – biochemical, fluorescence polarization, FITC-PAM2 peptide, dose response (AID 602259); assay type: functional; settings: read-out: IC50_Mean
cells [7] = assay type: functional, cell-based; remark: listed apart in the source
INS1 = assay: INS-1E survival protection against cytokine death – cell-based, luminescence, retest, dose response (AID 449756); assay type: functional; settings: Rattus norvegicus;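 note: cell death triggered by IL-1 beta plus TNF-alpha plus IFN-gamma mixture; protective hits raise ATP signal compared with cytokine alone wells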
P388/ADR = assay: cells; assay type: functional; settings: Mus musculus
SN12K1 = assay: cells; assay type: functional; settings: Homo sapiens
P388 = assay: cells; assay type: functional; settings: Mus musculus
[8] = HIV-1 AD8 envelope cell-cell fusion blockers – cherry-pick, dose response (AID 652062); assay type: functional, cell-based;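 note: luciferase signal from cell-cell fusion driven by HIV-1 clade B AD8 Env; potency is for inhibitors of fusion seen as a drop in luminescence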

Cytochrome P450 2C19, sequence (P33261 whole entry): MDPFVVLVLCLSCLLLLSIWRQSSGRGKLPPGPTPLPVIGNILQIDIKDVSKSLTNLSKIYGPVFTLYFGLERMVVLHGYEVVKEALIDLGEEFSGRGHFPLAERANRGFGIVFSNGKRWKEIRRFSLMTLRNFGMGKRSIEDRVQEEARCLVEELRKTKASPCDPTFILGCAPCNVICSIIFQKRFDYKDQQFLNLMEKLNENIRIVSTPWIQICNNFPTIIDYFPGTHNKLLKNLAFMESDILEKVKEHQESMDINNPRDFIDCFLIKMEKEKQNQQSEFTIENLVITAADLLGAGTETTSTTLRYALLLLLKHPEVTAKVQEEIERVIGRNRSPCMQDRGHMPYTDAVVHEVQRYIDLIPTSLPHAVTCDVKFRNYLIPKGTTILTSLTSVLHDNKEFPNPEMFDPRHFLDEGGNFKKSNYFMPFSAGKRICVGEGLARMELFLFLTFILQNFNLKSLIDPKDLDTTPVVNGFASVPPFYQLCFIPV

## O=C(NCCO)c1ccc(Cl)cc1
Cytochrome P450 2C19
  AC50: 2 µM (inconclusive)
Cytochrome P450 2D6
  AC50: 2 µM (inconclusive)
Cytochrome P450 2C9
  AC50: 5.01 µM (inconclusive)

## CCc1nc(N2CCN(C(=O)c3ccco3)CC2)c2c3c(sc2n1)CCCC3
Cells [1]
  EC50: > 350 µM (not active)

## O=C(COc1ccc(S(=O)(=O)NC2CCCCC2)cc1Cl)NCc1cccnc1
[2]
  IC50: > 47.1 µM (inactive)
[3]
  EC50: > 53 µM (inactive)

## COc1ccc(-n2c(=O)c(-c3cn(C)c4ccccc34)nc3cnc(N4CCNCC4)nc32)cc1
Cytochrome P450 2D6
  AC50: 20 µM (inconclusive)
Cytochrome P450 3A4
  AC50: 20 µM (inconclusive)
Cytochrome P450 2C9
  AC50: 39.8 µM (inconclusive)

## CCc1c(C)c2ccc(OCC(=O)OC)cc2oc1=O
Cells [4]
  IC50: 16.6 µM (active)

## CCCc1cc(=O)[nH]c(SCC(=O)Nc2nonc2N)n1
[5]
  IC50: > 66 µM (inactive)
[6]
  IC50: > 66 µM (inactive)

## CCC(C)(C)c1ccc(OCC(=O)Nc2ccncc2)cc1
Cells [4]
  IC50: 8.95 µM (active)

## CN(CC(=O)Nc1ccc(C#N)cc1)Cc1ccc(Cl)c(Cl)c1
Cells [4]
  IC50: 42.3 µM (active)

## COc1ccc(C2NN=C(c3ccc(C)cc3)S2)cc1 (configuration not stated)
Cells [1]
  EC50: > 350 µM (not active)
Cells [7]
  EC50: 24.6 µM (active)

## CSc1ccccc1NC(=O)c1cc(CC(C)C)on1
[2]
  IC50: > 47.1 µM (inactive)
[3]
  EC50: > 53 µM (inactive)

## O=C(NC(=S)Nc1ccccc1Br)c1ccco1
[5]
  IC50: > 66 µM (inactive)
[6]
  IC50: > 66 µM (inactive)

## CC(=O)c1cccc(NS(=O)(=O)c2ccc(N/C=C\C(=O)c3ccc(F)cc3)cc2)c1
INS1
  AC50: 3.74 µM (active)
Cytochrome P450 2D6
  AC50: 8.91 µM (inconclusive)

## NS(=O)(=O)c1ccc(/N=N\c2cnc(O)c(O)c2)cc1
Cytochrome P450 2C19
  AC50: 6.31 µM (inconclusive)
Cytochrome P450 2D6
  AC50: 5.01 µM (inconclusive)
Cytochrome P450 2C9
  AC50: 6.31 µM (inconclusive)

## Cc1cc(-c2nnnn2-c2cc(Cl)cc(Cl)c2)no1
Cells [1]
  EC50: > 350 µM (not active)
Cells [7]
  EC50: > 350 µM (not active)

## CCCC1(C)Nc2ccccc2-c2nc3ccccc3n21 (configuration not stated)
Cytochrome P450 2D6
  AC50: 22.4 µM (inconclusive)

## COc1ccccc1-c1nc(NCc2cccnc2)c2ccccc2n1
Cytochrome P450 2C19
  AC50: 39.8 µM (inconclusive)
Cytochrome P450 2D6
  AC50: 20 µM (inconclusive)

## Cc1ccc(C(=O)Nc2c3c(nn2C(C)(C)C)CS(=O)(=O)C3)cc1C
Cells [1]
  EC50: > 350 µM (not active)
Cells [7]
  EC50: > 350 µM (not active)

## CC1(Cc2ccc3c(c2)OCO3)NC(=O)NC1=O (configuration not stated)
[2]
  IC50: > 47.1 µM (inactive)
[3]
  EC50: > 53 µM (inactive)

## Cc1cc(=O)n2nc(N3CCC(C(=O)Nc4c(F)c(F)c(F)c(F)c4F)CC3)sc2n1
[2]
  IC50: > 47.1 µM (inactive)
[3]
  EC50: > 53 µM (inactive)

## N#Cc1ccc(CN2CCC3(CC2)CCN(C(=O)c2cc(C(F)(F)F)cc(C(F)(F)F)c2)CC3)cc1
Cytochrome P450 2D6
  AC50: 39.8 µM (inconclusive)

## Cc1cc(C)n(CC(=O)NNC(=O)COc2ccc(Br)cc2F)n1
[5]
  IC50: > 66 µM (inactive)
[6]
  IC50: > 66 µM (inactive)

## CCNC(=O)COC(=O)c1ccc(-c2nc3ccccc3s2)s1
Cells [4]
  IC50: 5.44 µM (active)

## COc1ccccc1NC(=O)c1cnc(SC)nc1
Cells [4]
  IC50: 49.4 µM (active)

## Cc1ccc(C(=O)N(Cc2sccc2C)C2CCS(=O)(=O)C2)cc1 (configuration not stated)
[2]
  IC50: > 47.1 µM (inactive)
[3]
  EC50: > 53 µM (inactive)

## COc1ccc(-c2noc(-c3cc4ccccc4oc3=O)n2)cc1
Cells [4]
  IC50: 5.25 µM (active)

## COc1cccc(CN2CCN(c3cccc(C(F)(F)F)c3)CC2)c1OC
[2]
  IC50: > 47.1 µM (inactive)
[3]
  EC50: > 53 µM (inactive)

## CC(C)NC[C@@H](O)COc1ccccc1-n1cccc1
Cytochrome P450 2D6
  AC50: 31.6 µM (inconclusive)

## Cc1ccc(NC(=O)CSc2ncc3ccccn23)cc1
Cells [1]
  EC50: > 350 µM (not active)
Cells [7]
  EC50: 41.4 µM (active)

## CC(C)N(C(=O)[C@H]1C[C@H](CC(=O)NCc2ccco2)C(=O)N2CCc3c([nH]c4cc(CCC(=O)N(C)C)ccc34)[C@]12C)C(C)C
[2]
  IC50: > 47.1 µM (inactive)
[3]
  EC50: > 53 µM (inactive)

## COc1ccc(Cl)cc1C(=O)NNC(=O)COC(=O)c1cccs1
[2]
  IC50: > 47.1 µM (inactive)
[3]
  EC50: > 53 µM (inactive)

## Cc1cc([N+](=O)[O-])c2ccccc2c1NS(=O)(=O)c1ccccc1
[2]
  IC50: > 47.1 µM (inactive)
[3]
  EC50: > 53 µM (inactive)

## O=C(NCCCCCCNC(=O)N1CCCCCC1)N1CCCCCC1
[2]
  IC50: > 47.1 µM (inactive)
[3]
  EC50: > 53 µM (inactive)

## CC(=O)Nc1ccc(SC[C@H](Cc2ccccc2)N2CC[C@@H](O)CCC2=O)cc1
[5]
  IC50: > 66 µM (inactive)
[6]
  IC50: > 66 µM (inactive)

## Oc1c(N=Nc2nn[nH]n2)ccc2ccccc12
[5]
  IC50: > 66 µM (inactive)
[6]
  IC50: 38.9 µM (inactive)

## COc1ccc(C2C(C)C(=O)C(C)C(c3ccc(OC)cc3)N2N=O)cc1 (configuration not stated)
P388/ADR
  GI50: > 100 µM (inactive)
SN12K1
  GI50: 55.2 µM (inactive)

## O=C(CCCc1ccccc1)Nc1nncs1
[2]
  IC50: > 47.1 µM (inactive)
[3]
  EC50: > 53 µM (inactive)

## Cc1cccc2nc3c(C(=O)NCCN(C)C)cccc3cc12
P388/ADR
  GI50: 0.474 µM (active)
SN12K1
  GI50: 0.711 µM (active)
P388
  GI50: 0.292 µM (active)

## CN(C)CCNC(=O)c1cccc2[nH]c(-c3ccc(Cl)cc3)nc12
P388/ADR
  GI50: 3.2 µM (inactive)
SN12K1
  GI50: 3.48 µM (inactive)
P388
  GI50: 2.48 µM (inactive)

## COc1cc(C2(c3ncc[nH]3)SSSCC2O)ccc1O (configuration not stated)
P388/ADR
  GI50: 17.8 µM (inactive)
SN12K1
  GI50: 30.5 µM (inactive)
P388
  GI50: 18.7 µM (inactive)

## CC(NCCS(=O)(=O)O)C(=O)O (configuration not stated)
P388/ADR
  GI50: > 100 µM (inactive)
SN12K1
  GI50: > 100 µM (inactive)
P388
  GI50: > 100 µM (inactive)

## COc1cccc2c1C(=O)c1c(O)c3c(c(O)c1C2=O)C[C@@](O)(C(C)O)C[C@@H]3OC1CC(N)C(O)C(C)O1 (some centres not stated)
P388/ADR
  GI50: 36.6 µM (inactive)
SN12K1
  GI50: 0.0891 µM (active)
P388
  GI50: 0.191 µM (active)

## CC(C)C1NC(=O)CC(c2ccccc2)N(N=O)C1c1ccccc1 (configuration not stated)
P388/ADR
  GI50: 44.5 µM (inactive)
SN12K1
  GI50: > 89.9 µM (inactive)
P388
  GI50: 70.1 µM (inactive)

## O=C1C2=C(C3=NCCc4c[nH]c1c43)c1c(Br)cc(Br)cc1CCN2
P388/ADR
  GI50: 2.18 µM (inactive)
SN12K1
  GI50: 3.65 µM (inactive)
P388
  GI50: 2.13 µM (inactive)

## CO/C=C1\OC(=O)C=C1OC
P388/ADR
  GI50: > 100 µM (inactive)
SN12K1
  GI50: > 100 µM (inactive)
P388
  GI50: > 100 µM (inactive)

## Cc1ccc(S(=O)(=O)N(C)C[C@@H]2Oc3ccc(NS(=O)(=O)c4ccc(Cl)cc4)cc3C(=O)N([C@@H](C)CO)C[C@H]2C)cc1
[8]
  AC50: 3.2 µM (active)

## Cc1c2cc[n+](C)c(C)c2cc2c1[nH]c1ccccc12
P388/ADR
  GI50: > 100 µM (inactive)
SN12K1
  GI50: 2.21 µM (inactive)
P388
  GI50: 4.5 µM (inactive)

## CCOC(=O)/C(=N\Nc1ccc(F)cc1)C(=O)c1ccc([N+](=O)[O-])cc1
Cells [1]
  EC50: > 350 µM (not active)
Cells [7]
  EC50: > 350 µM (not active)

## O=C(O)CNS(=O)(=O)c1ccc(NC(=O)Nc2ccccc2)cc1
P388/ADR
  GI50: > 100 µM (inactive)
SN12K1
  GI50: > 100 µM (inactive)
P388
  GI50: > 100 µM (inactive)

## Cc1c2cc[n+](Cc3ccc(I)cc3)cc2c(C)c2c1[nH]c1ccccc12
P388/ADR
  GI50: 17.9 µM (inactive)
SN12K1
  GI50: 0.208 µM (active)
P388
  GI50: 0.1 µM (active)

## [H]/N=C(/N)N/C(=N/[H])NCCc1ccccc1 [PHENFORMIN]
Cytochrome P450 2D6
  AC50: 10 µM (inconclusive)
